# In US12433803B2, “Methods and compositions for studying cell evolution” (THE BROAD INSTITUTE, INC., priority 2017, dated 2025):
# System: D458 medulloblastoma cells
# Experiment: Drug resistance experiment: barcoded D458 cells passaged in JQ1, barcode sequencing and deconvolution
# Format: cell-based
# Conditions: FIG. 4; barcoded cells passaged with JQ1 (2 uM per method b225); same barcodes recovered in replicate experiments
# Method: Drug resistance experiments—D458 and JQ1. Barcoded D458 medulloblastoma cells (fingerprint verified) cells were treated with DMSO or JQ1 (obtained from Drs Bradner and Qi) at a concentration of 2 uM in multiple replicate plates (5×DMSO and 5× each drug concentration). 4 million cells of barcoded D458 cells were plated in each replicate plate in presence of DMSO or JQ1. Barcoded JQ1 cells were also frozen in 10% DMSO/FCS for future retrievable. In addition, cells were also collected for DNA-extraction to determine barcode representation at the early-time point. Cells were retreated with compound every 3-4 days. Cells were counted, passaged or split every 3-4 days, maintaining a minimum representation of 4 million cells. Cells were cultured in DMSO or JQ1 for a total of […] prior to harvesting for DNA extraction for barcode sequencing and deconvolution.
# Library deconvolution. Genomic DNA was extracted and prepared for deep sequencing as in (JJ 2017). Libraries were sequenced to a minimum depth of 18 million reads, corresponding to a barcode coverage of >80×.
compound,measurement,value
Cc1sc2c(c1C)C(c1ccc(Cl)cc1)=N[C@@H](CC(=O)OC(C)(C)C)c1nnc(C)n1-2 [JQ1],Percentage of barcodes that persist following treatment with JQ1,5%
